According to patent US20230364272A1, “THERANOSTIC COMPOUNDS” (NRF ITHEMBA LABS, priority 2020, published 2023):

Assays:
Assay type in all cases: cell-based
[1] = tested on: cervical (HeLa) cancer cell line; experiment: ADAM10 biological activity, EC50 in HeLa cells
[2] = tested on: esophageal (WHCO5) cancer cell line; experiment: ADAM10 biological activity, EC50 in WHCO5 cells
[3] = tested on: cervical (HeLa) cancer cell line; experiment: Radioactivity uptake of ^123I radiolabeled ADAM10 inhibitor in HeLa cells; conditions: for uptake (in words): Table 1 / FIG. 2 experiment
Method: (§1) In order to test the biological activity of the radiolabeled compound in vitro, two cell lines were chosen as esophageal (WHCO5) and cervical (HeLa) cancer cell lines (using [^123I]Nal as the control) and the radioactivity uptake was measured using a bore-hole or scintillation counter. […] The well plates were incubated for one hour in a humidified CO2 incubator at 37° C. The measurements were performed with a ^123I Multi Channel Analyzer, and during the incubation time, a calibration and counting efficiency determination was carried out on the channel.^33
(§2) After the one-hour incubation period, the growth medium was aspirated, leaving the adherent cell monolayers intact and the cell cultures rinsed twice with cold PBS to remove any residual extracellular radioactivity. The cell monolayers were lysed with 1 mL 1M NaOH, and 1 mL of each lysed suspension was transferred to a clean test tube. The data is presented as an average of triplicates and was corrected for ^123I decay using Eff Corr as the correcting factor, which considers the half-life and decay of the radionuclide over a specific time interval.
(§3) […] Data represents an average and standard deviation of 12 replicates using 0.3 μCi of ^123I-SN-311 and 200000 cells.

[4] = tested on: esophageal (WHCO5) cancer cell line; experiment: Radioactivity uptake of ^123I radiolabeled ADAM10 inhibitor in WHCO5 cells; conditions: for uptake (in words): WHCO5, Table 1 / FIG. 2 experiment
Method: as §1, §2, §3

[5] = tested on: cervical (HeLa) cancer cell line; experiment: Radioactivity uptake of ^123I radiolabeled ADAM10 inhibitor in HeLa cells; conditions: 3 mCi (title); for Average counts per min: 1 h incubation; for A(0) per well × Eff corr: decay corrected
[6] = tested on: esophageal (WHCO5) cancer cell line; experiment: Radioactivity uptake of ^123I radiolabeled ADAM10 inhibitor in WHCO5 cells; conditions: 3 mCi (title); for Average counts per min: 1 h incubation; for A(0) per well × Eff corr: decay corrected

Structure (SMILES)	uptake (in words) [3]	uptake (in words) [4]	Bq per well ([5]; 50000 cells) [Bq]	Average counts per min ([5]; 50000 cells) [counts per min]	A(0) per well × Eff corr ([5]; 50000 cells)	Bq per well ([5]; 100000 cells) [Bq]	Average counts per min ([5]; 100000 cells) [counts per min]	A(0) per well × Eff corr ([5]; 100000 cells)	Bq per well ([5]; 150000 cells) [Bq]	Average counts per min ([5]; 150000 cells) [counts per min]	A(0) per well × Eff corr ([5]; 150000 cells)	Bq per well ([5]; 200000 cells) [Bq]	Average counts per min ([5]; 200000 cells) [counts per min]	A(0) per well × Eff corr ([5]; 200000 cells)	Bq per well ([6]; WHCO5, 50000 cells) [Bq]	Average counts per min ([6]; WHCO5, 50000 cells) [counts per min]	A(0) per well × Eff corr ([6]; WHCO5, 50000 cells)	Bq per well ([6]; WHCO5, 100000 cells) [Bq]	Average counts per min ([6]; WHCO5, 100000 cells) [counts per min]	A(0) per well × Eff corr ([6]; WHCO5, 100000 cells)	also measured
CNC(=O)[C@@H](NC(=O)[C@H](CCCc1ccccc1)[C@@H](C)N(O)C=O)C(C)(C)C [SN-311]	–	–	–	–	–	–	–	–	–	–	–	–	–	–	–	–	–	–	–	–	EC50 compared with G1254023X [1]: fall within the 95% confidence interval of that of G1254023X; EC50 compared with G1254023X [2]: fall within the 95% confidence interval of that of G1254023X
[123I-].[Na+] [[^123I]NaI, reference compound]	minimal uptake	minimal uptake	148	1974	8857	149	1991	8934	173	2308	10355	161	2147	9635	297	3968	17807	308	4116	18470	Bq per well ([6]; WHCO5, 150000 cells): 317 Bq; Average counts per min ([6]; WHCO5, 150000 cells): 4239 counts per min; A(0) per well × Eff corr ([6]; WHCO5, 150000 cells): 19021; Bq per well ([6]; WHCO5, 200000 cells): 357 Bq; Average counts per min ([6]; WHCO5, 200000 cells): 4772 counts per min; A(0) per well × Eff corr ([6]; WHCO5, 200000 cells): 21415
CNC(=O)C(NC(=O)C(CCCc1ccc([123I])cc1)C(C)N(O)C=O)C(C)(C)C (centres unmarked) [^123I-SN-311]	clear uptake	clear uptake	455	6080	27284	567	7582	34023	691	9236	41445	864	11555	51852	698	9337	41898	988	13207	59265	uptake of the radiolabeled compound ([3]; 0.3 μCi per well, 200000 cells, average of 12 replicates): 81.76 Bq; uptake of the radiolabeled compound ([4]; WHCO5, 0.3 μCi per well, 200000 cells, average of 12 replicates): 127.63 Bq; Bq per well ([6]; WHCO5, 150000 cells): 1202 Bq; Average counts per min ([6]; WHCO5, 150000 cells): 16075 counts per min; A(0) per well × Eff corr ([6]; WHCO5, 150000 cells): 72135; Bq per well ([6]; WHCO5, 200000 cells): 1421 Bq; Average counts per min ([6]; WHCO5, 200000 cells): 18996 counts per min; A(0) per well × Eff corr ([6]; WHCO5, 200000 cells): 85240
